Laboratory results reported in US9040545B2, “Heterocyclyl pyrazolopyrimidine analogues as selective JAK inhibitors” (Cellzome Limited, priority 2010, dated 2015).

molecular target: T1, JAK3 (Homo sapiens, UniProt P52333); test: Kinobeads assay, JAK3; format: binding; conditions: mixed Molt4/Ramos lysate, read-out: Inhibition values (IC50) JAK3
T1 construct: endogenous in cells; host or cells: mixed Molt4/Ramos lysate (1:2)
T1 sequence (P52333 1-1124): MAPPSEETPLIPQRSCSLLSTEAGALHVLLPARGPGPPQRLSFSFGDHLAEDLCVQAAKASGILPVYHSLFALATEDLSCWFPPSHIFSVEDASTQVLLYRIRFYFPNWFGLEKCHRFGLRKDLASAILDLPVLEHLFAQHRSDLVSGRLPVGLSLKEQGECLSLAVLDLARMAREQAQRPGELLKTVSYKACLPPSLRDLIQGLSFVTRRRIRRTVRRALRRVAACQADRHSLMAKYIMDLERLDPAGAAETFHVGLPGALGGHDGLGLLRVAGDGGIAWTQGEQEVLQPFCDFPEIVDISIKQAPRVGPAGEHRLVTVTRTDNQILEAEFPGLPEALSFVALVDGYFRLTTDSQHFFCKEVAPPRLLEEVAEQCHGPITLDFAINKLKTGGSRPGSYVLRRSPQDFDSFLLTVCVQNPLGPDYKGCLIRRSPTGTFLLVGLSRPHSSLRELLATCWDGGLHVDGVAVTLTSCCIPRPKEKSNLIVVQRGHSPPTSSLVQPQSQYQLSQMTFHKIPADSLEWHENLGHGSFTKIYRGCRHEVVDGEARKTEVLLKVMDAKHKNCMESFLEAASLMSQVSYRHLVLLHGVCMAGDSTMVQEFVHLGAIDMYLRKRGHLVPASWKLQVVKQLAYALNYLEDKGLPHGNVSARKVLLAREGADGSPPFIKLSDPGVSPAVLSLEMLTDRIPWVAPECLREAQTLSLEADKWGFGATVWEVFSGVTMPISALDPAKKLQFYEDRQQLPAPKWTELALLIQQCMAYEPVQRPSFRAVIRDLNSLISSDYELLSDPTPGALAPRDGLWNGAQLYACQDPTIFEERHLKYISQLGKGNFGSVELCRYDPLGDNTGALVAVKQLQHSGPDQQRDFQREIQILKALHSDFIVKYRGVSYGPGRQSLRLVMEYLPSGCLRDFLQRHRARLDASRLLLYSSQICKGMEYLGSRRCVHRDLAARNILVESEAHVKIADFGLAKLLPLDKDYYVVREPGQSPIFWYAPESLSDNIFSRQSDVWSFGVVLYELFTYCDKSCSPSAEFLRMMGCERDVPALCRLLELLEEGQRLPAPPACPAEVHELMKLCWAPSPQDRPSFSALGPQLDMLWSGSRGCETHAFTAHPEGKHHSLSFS
Protocol: The compounds of the present invention as described in the previous examples were tested in a Kinobeads™ assay as described for ZAP-70 (WO-A 2007/137867). Briefly, test compounds (at various concentrations) and the affinity matrix with the immobilized aminopyrido-pyrimidine ligand 24 were added to cell lysate aliquots and allowed to bind to the proteins in the lysate sample. After the incubation time the beads with captured proteins were separated from the lysate. Bound proteins were then eluted and the presence of JAK2 and JAK3 was detected and quantified using specific antibodies in a dot blot procedure and the Odyssey infrared detection system. Dose response curves for individual kinases were generated and IC50 values calculated. Kinobeads™ assays for ZAP-70 (WO-A 2007/137867) and for kinase selectivity profiling (WO-A 2006/134056) have been previously described.
The affinity matrix was washed two times with 15 mL of 1×DP buffer containing 0.2% NP40 (IGEPAL® CA-630, Sigma, #I3021) and then resuspended in 1×DP buffer containing 0.2% NP40 (3% beads slurry).
5×DP buffer 250 mM Tris-HCl pH 7.4, 25% Glycerol, 7.5 mM MgCl2, 750 mM NaCl, 5 mM Na3VO4; filter the 5×DP buffer through a 0.22 μm filter and store in aliquots at −80° C. The 5×DP buffer is diluted with H2O to 1×DP buffer containing 1 mM DTT and 25 mM NaF.
Stock solutions of test compounds were prepared in DMSO. In a 96 well plate 30 μL solution of diluted test compounds at 5 mM in DMSO were prepared. Starting with this solution a 1:3 dilution series (9 steps) was prepared. For control experiments (no test compound) a buffer containing 2% DMSO was used.
Molt4 cells (ATCC catalogue number CRL-1582) and Ramos cells (ATCC catalogue number CRL-1596) were grown in 1 L Spinner flasks (Integra Biosciences, #182101) in suspension in RPMI 1640 medium (Invitrogen, #21875-034) supplemented with 10% Fetal Bovine Serum (Invitrogen) at a density between 0.15×106 and 1.2×10^6 cells/mL. Cells were harvested by centrifugation, washed once with 1×PBS buffer (Invitrogen, #14190-094) and cell pellets were frozen in liquid nitrogen and subsequently stored at −80° C. Cells were homogenized in a Potter S homogenizer in lysis buffer: 50 mM Tris-HCl, 0.8% NP40, 5% glycerol, 150 mM NaCl, 1.5 mM MgCl2, 25 mM NaF, 1 mM sodium vanadate, 1 mM DTT, pH 7.5. One complete EDTA-free tablet (protease inhibitor cocktail, Roche Diagnostics, 1873580) per 25 mL buffer was added. The material was dounced 10 times using a mechanized POTTER S, transferred to 50 mL falcon tubes, incubated for 30 minutes on ice and spun down for 10 minutes at 20,000 g at 4° C. (10,000 rpm in Sorvall SLA600, precooled). The supernatant was transferred to an ultracentrifuge (UZ)-polycarbonate tube (Beckmann, 355654) and spun for 1 hour at 100,000 g at 4° C. (33.500 rpm in Ti50.2, precooled). The supernatant was transferred again to a fresh 50 mL falcon tube, the protein concentration was determined by a Bradford assay (BioRad) and samples containing 50 mg of protein per aliquot were prepared. The samples were immediately used for experiments or frozen in liquid nitrogen and stored frozen at −80° C.
Cell lysate (approximately 50 mg protein per plate) was thawed in a water bath at room temperature and then stored on ice. To the thawed cell lysate 1×DP 0.8% NP40 buffer containing protease inhibitors (1 tablet for 25 mL buffer; EDTA-free protease inhibitor cocktail; Roche Diagnostics 1873580) was added in order to reach a final protein concentration of 10 mg/mL total protein. The diluted cell lysate was stored on ice. Mixed Molt4/Ramos lysate was prepared by combining one volume of Molt4 lysate and two volumes of Ramos lysate (ratio 1:2).
To a 96 well filter plate (Multiscreen HTS, BV Filter Plates, Millipore #MSBVN1250) were added per well: 100 μL affinity matrix (3% beads slurry), 3 μL of compound solution, and 50 μL of diluted lysate. […]

Row | Structure (SMILES) | IC50 [nM]
1 | Cn1cc(Nc2ncc3cnn(Cc4cccc(N5CCNCC5)c4)c3n2)cn1 [Example 22, N-(1-Methyl-1H-pyrazol-4-yl)-1-(3-(piperazin-1-yl)benzyl)-1H-pyrazolo[3,4-d]pyrimidin-6-amine] | < 100
2 | FC(F)Cn1cc(Nc2ncc3cnn(Cc4cccc(N5CCOCC5)c4)c3n2)cn1 [Example 23, N-(1-(2,2-Difluoroethyl)-1H-pyrazol-4-yl)-1-(3-morpholinobenzyl)-1H-pyrazolo[3,4-d]pyrimidin-6-amine] | < 100
3 | CNC(=O)CCn1cc(Nc2ncc3cnn(Cc4cccc(N5CCOCC5)c4)c3n2)cn1 [Example 24, N-Methyl-3-(4-((1-(3-morpholinobenzyl)-1H-pyrazolo[3,4-d]pyrimidin-6-yl)amino)-1H-pyrazol-1-yl)propanamide] | < 100
4 | Cn1cc(Nc2ncc3cnn(Cc4cccc(N5CCS(=O)(=O)CC5)c4)c3n2)cn1 [Example 25, 4-(3-((6-((1-Methyl-1H-pyrazol-4-yl)amino)-1H-pyrazolo[3,4-d]pyrimidin-1-yl)methyl)phenyl)thiomorpholine 1,1-dioxide] | < 100
5 | Cn1cc(Nc2ncc3cnn(Cc4cccc(N5CC6CCC(C5)O6)c4)c3n2)cn1 [Example 26] | < 100
6 | Cn1cc(Nc2ncc3cnn(Cc4cccc(N5CCOCC5=O)c4)c3n2)cn1 [Example 27, 4-(3-((6-((1-Methyl-1H-pyrazol-4-yl)amino)-1H-pyrazolo[3,4-d]pyrimidin-1-yl)methyl)phenyl)morpholin-3-one] | < 100
7 | CN(C)CCCn1cc(Nc2ncc3cnn(Cc4cccc(N5CCOCC5=O)c4)c3n2)cn1 [Example 28, 4-(3-((6-((1-(3-(Dimethylamino)propyl)-1H-pyrazol-4-yl)amino)-1H-pyrazolo[3,4-d]pyrimidin-1-yl)methyl)phenyl)morpholin-3-one] | < 100
8 | O=C1COCCN1c1cccc(Cn2ncc3cnc(Nc4cnn(CCO)c4)nc32)c1 [Example 29, 4-(3-((6-((1-(2-Hydroxyethyl)-1H-pyrazol-4-yl)amino)-1H-pyrazolo[3,4-d]pyrimidin-1-yl)methyl)phenyl)morpholin-3-one] | < 100
9 | O=C1CCCN1CCCn1cc(Nc2ncc3cnn(Cc4cccc(N5CCOCC5)c4)c3n2)cn1 [Example 30, 1-(3-(4-((1-(3-Morpholinobenzyl)-1H-pyrazolo[3,4-d]pyrimidin-6-yl)amino)-1H-pyrazol-1-yl)propyl)pyrrolidin-2-one] | < 100
10 | CN(C)CC1(Cn2cc(Nc3ncc4cnn(Cc5cccc(N6CCOCC6)c5)c4n3)cn2)COC1 [Example 31, N-(1-((3-((Dimethylamino)methyl)oxetan-3-yl)methyl)-1H-pyrazol-4-yl)-1-(3-morpholinobenzyl)-1H-pyrazolo[3,4-d]pyrimidin-6-amine] | < 100
11 | CC(CN(C)C)Cn1cc(Nc2ncc3cnn(Cc4cccc(N5CCOCC5)c4)c3n2)cn1 (centres unmarked) [Example 32, N-(1-(3-(Dimethylamino)-2-methylpropyl)-1H-pyrazol-4-yl)-1-(3-morpholinobenzyl)-1H-pyrazolo[3,4-d]pyrimidin-6-amine] | < 100
12 | CN(C)CC(O)Cn1cc(Nc2ncc3cnn(Cc4cccc(N5CCOCC5)c4)c3n2)cn1 (centres unmarked) [Example 33, 1-(Dimethylamino)-3-(4-((1-(3-morpholinobenzyl)-1H-pyrazolo[3,4-d]pyrimidin-6-yl)amino)-1H-pyrazol-1-yl)propan-2-ol] | < 100
13 | NCCCn1cc(Nc2ncc3cnn(Cc4cccc(N5CCOCC5)c4)c3n2)cn1 [Example 34, N-(1-(3-Aminopropyl)-1H-pyrazol-4-yl)-1-(3-morpholinobenzyl)-1H-pyrazolo[3,4-d]pyrimidin-6-amine] | < 100
14 | O=C(CCn1cc(Nc2ncc3cnn(Cc4cccc(N5CCOCC5)c4)c3n2)cn1)NC1CC1 [Example 35, N-Cyclopropyl-3-(4-((1-(3-morpholinobenzyl)-1H-pyrazolo[3,4-d]pyrimidin-6-yl)amino)-1H-pyrazol-1-yl)propanamide] | < 100
15 | Cn1cc(Nc2ncc3cnn(Cc4cccc(N5CCNCC5=O)c4)c3n2)cn1 [Example 36, 1-(3-((6-((1-Methyl-1H-pyrazol-4-yl)amino)-1H-pyrazolo[3,4-d]pyrimidin-1-yl)methyl)phenyl)piperazin-2-one] | < 100
16 | Cn1cc(Nc2ncc3cnn(Cc4cc(N5CCOCC5)cc(F)c4F)c3n2)cn1 [Example 37, 1-(2,3-Difluoro-5-morpholinobenzyl)-N-(1-methyl-1H-pyrazol-4-yl)-1H-pyrazolo[3,4-d]pyrimidin-6-amine] | 100 to 1000
17 | Cn1cc(Nc2ncc3cnn(Cc4c(F)ccc(N5CCOCC5)c4F)c3n2)cn1 [Example 38, 1-(2,6-Difluoro-3-morpholinobenzyl)-N-(1-methyl-1H-pyrazol-4-yl)-1H-pyrazolo[3,4-d]pyrimidin-6-amine] | < 100
18 | OCCn1cc(Nc2ncc3cnn(Cc4cccc(N5CCOCC5)c4F)c3n2)cn1 [Example 39, 2-(4-((1-(2-Fluoro-3-morpholinobenzyl)-1H-pyrazolo[3,4-d]pyrimidin-6-yl)amino)-1H-pyrazol-1-yl)ethanol] | < 100
19 | Cn1cc(Nc2ncc3cnn(Cc4cccc(N5CCOCC5=O)c4F)c3n2)cn1 [Example 40, 4-(2-Fluoro-3-((6-((1-methyl-1H-pyrazol-4-yl)amino)-1H-pyrazolo[3,4-d]pyrimidin-1-yl)methyl)phenyl)morpholin-3-one] | < 100
20 | CNCC1(Cn2cc(Nc3ncc4cnn(Cc5cccc(N6CCOCC6)c5)c4n3)cn2)COC1 [Example 41, N-(1-((3-((Methylamino)methyl)oxetan-3-yl)methyl)-1H-pyrazol-4-yl)-1-(3-morpholinobenzyl)-1H-pyrazolo[3,4-d]pyrimidin-6-amine] | < 100
